In paper PMC12799362, “The effect of dimeric bisbenzimidazoles on the activity of DNA repair enzymes TDP1, TDP2, PARP1 and PARP2” (Vavilov Journal of Genetics and Breeding, 2025):

Key:
[1] = molecular target: T1, tyrosyl-DNA phosphodiesterase 1 (TDP1) (Homo sapiens, UniProt Q9NUW8); assay: Real-time fluorescent detection of TDP1 activity (BHQ1 cleavage from 3′-end of single-stranded FAM oligonucleotide); type: biochemical; conditions: recombinant TDP1 1.5 nM, 50 nM single-stranded oligonucleotide, 26 °C; mean ± SD, at least three replicates
T1 construct: made in house; host or cells: E. coli
Protocol: (§1) Recombinant human proteins tyrosyl-DNA phosphodiesterase 1 (TDP1) and tyrosyl-DNA phosphodiesterase 2 (TDP2) were expressed in the E. coli system, poly(ADP-ribose) polymerase 1 (PARP1) and poly(ADP-ribose) polymerase 2 (PARP2) were expressed in insect cells using a baculovirus expression system and purified as described in (Sukhanova et al., 2004; Sherstyuk et al., 2019; Dyrkheeva et al., 2020, 2021).
Determination of TDP1 activity. The reaction mixture (200 μl) for real-time fluorescent detection of TDP1 enzyme activity (Zakharenko et al., 2015) contained TDP1 reaction buffer (50 mM Tris-HCl, pH 8.0, 50 mM NaCl, and 7 mM β-mercaptoethanol), 50 nM oligonucleotide 5′-FAM-AAC GTC AGG GTC TTC C-BHQ1-3′, the test compound at various concentrations, and TDP1 at a final concentration of 1.5 nM. The reaction mixtures were incubated at a constant temperature of 26 °C in a POLARstar OPTIMA microplate fluorometer (BMG LABTECH, GmbH, Ortenberg, Germany). Fluorescence intensity (Ex485/Em520 nm) was measured every minute for 10 min. Mean values of half-maximal inhibitory concentration (IC50 – the concentration of the compound that inhibited 50 % of enzyme activity compared to the untreated control well containing only enzyme and substrate) were determined using a dose-response curve of the fluorescence signal level versus inhibitor concentration and calculated using MARS Data Analysis 2.0 (BMG LABTECH). Kinetic curves were obtained in at least three independent experiments and statistically processed in OriginPro 8.6.0 (OriginLab, Northampton, Massachusetts, USA).
The third group of compounds includes derivatives of the monomeric compound MB2Py(Ac), which is an isosteric analog of MB3, due to the fact that the pyrrolecarboxamide fragment contained in its structure can act as a hydrogen atom donor at the carboxamide nitrogen for hydrogen bond formation, in a position analogous to benzimidazole. Dimeric derivatives are represented by the DB2Py(n) series containing n-alkyldicarboxylic acids as a linker. This series is represented by a set of compounds containing 1, 3, 4, 5, 7, 9, and 11 methylene units, which allowed for a more accurate assessment of the dependence of the inhibitory activity of compounds on spacer length. The DB2Py(n) series differs from the DB3(n) series by the presence, in addition to the bisbenzimidazole structure, of a pyrrolecarboxamide structure, which is a fragment of the AT-specific antibiotic netropsin.Using the real-time fluorescence analysis method, halfmaximal inhibitory concentration (IC50) values of the studied compounds (see the Table) were obtained in the reaction of BHQ1 cleavage from the 3′-end of the oligonucleotide by TDP1, which led to an increase in FAM fluorescence at the 5′-end of the chain (Zakharenko et al., 2015). It should also be noted that a single-stranded oligonucleotide was used as substrate to exclude the binding of dimeric bisbenzimidazoles as minor-groove ligands to the DNA substrate and direct their action toward the enzymatic target.

[2] = molecular target: T2, tyrosyl-DNA phosphodiesterase 2 (TDP2) (Homo sapiens, UniProt O95551); assay: TDP2 activity, removal of 5′-tyrosine from oligonucleotide substrate, denaturing PAGE; type: biochemical; conditions: inhibitor 500 μM, TDP2 200 nM, substrate 100 nM, 10 min, 37 °C; mean ± SD; read-out: TDP2 % of residual activity (500 μM)
T2 construct: made in house; host or cells: E. coli
T2 sequence (O95551 1-362): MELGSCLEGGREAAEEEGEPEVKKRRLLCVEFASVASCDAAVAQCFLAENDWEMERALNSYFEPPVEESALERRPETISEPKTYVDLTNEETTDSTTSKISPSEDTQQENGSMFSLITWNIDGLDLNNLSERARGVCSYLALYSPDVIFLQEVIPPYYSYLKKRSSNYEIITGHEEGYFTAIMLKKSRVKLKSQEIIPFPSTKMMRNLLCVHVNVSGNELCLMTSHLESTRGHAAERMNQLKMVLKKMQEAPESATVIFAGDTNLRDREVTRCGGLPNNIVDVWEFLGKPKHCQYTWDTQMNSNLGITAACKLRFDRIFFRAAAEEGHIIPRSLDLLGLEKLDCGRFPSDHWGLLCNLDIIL
From the text: as §1
Determination of TDP2 activity. For determination of TDP2 enzyme activity, an oligonucleotide 5′-tyrosine-AAC GTC AGG GTC TTC C-FAM-3′ containing a 6-FAM label at the 3′-end and an L-tyrosine residue attached via the phenolic OH group to the 5′-terminal phosphate was used as substrate, synthesized at the Russian-French-Japanese Laboratory of Bionanotechnology of Novosibirsk State University as described in (Dyrkheeva et al., 2021). The substrate at a concentration of 100 nM was incubated with TDP2 at a concentration of 200 nM in the absence or presence of inhibitor (500 μM) for 10 min at 37 °C in buffer containing 50 mM Tris-HCl, pH 8.0, 50 mM NaCl, 7 mM β-mercaptoethanol (Dyrkheeva et al., 2021). The reaction was stopped by addition of PAGE loading buffer (TBE, 10 % formamide, 7 M urea, 20 mM EDTA, 0.1 % xylene cyanol, and 0.1 % bromophenol blue). The samples were then heated at 90 °C for 5 min. The enzymatic reaction products were separated by electrophoresis in 20 % denaturing PAGE with 7 M urea at an acrylamide to bisacrylamide ratio of 19:1. A high-resolution Typhoon FLA 9500 laser scanner (GE Healthcare, Chicago, Illinois, USA) was used for gel scanning and visualization, and the data were analyzed using QuantityOne 4.6.7 software (Bio- Rad Laboratories, Inc., Hercules, California, USA). At least three independent experiments were performed, and statistical processing was carried out using OriginPro 8.6.0 (OriginLab, Northampton, Massachusetts, USA).
To study the effect of the studied compounds on TDP2 activity, we tested the ability of this enzyme to remove the tyrosine residue from the 5′-end of the oligonucleotide substrate in the absence and presence of inhibitors, as described in (Dyrkheeva et al., 2021).

[3] = molecular target: T3, poly(ADP-ribose) polymerase 1 (PARP1) (Homo sapiens, UniProt P09874); assay: PARP1 auto-poly(ADP-ribosyl)ation with [32P]-NAD+; type: biochemical; conditions: compound 500 μM, PARP1 200 nM, 0.3 mM [32P]-NAD+, 2 min, 37 °C; mean ± SD; read-out: PARP1 % of residual activity (500 μM)
T3 construct: made in house; host or cells: insect cells (baculovirus expression system)
From the text: as §1
(§2) Determination of PARP1 and PARP2 activity. For determination of PARP1 and PARP2 enzyme activity in the presence and absence of test compounds, radiolabeled [32P]-NAD⁺ was synthesized from α-[32P]-ATP according to the protocol (Sherstyuk et al., 2019). The auto-poly(ADPribosyl) ation reaction was performed in buffer for PARP1: 50 mM Tris-HCl, pH 8.0, 10 mM MgCl2, 150 mM NaCl, and 7 mM β-mercaptoethanol, as well as 2 A260 units/ml activated DNA, 0.3 mM [32P]-NAD⁺ at 37 °C. The reaction was initiated by addition of PARP1 to 200 nM and carried out for 2 min
(§3) The buffer for PARP2 contained: 50 mM Tris-HCl, pH 8.0, 3 mM spermine, 150 mM NaCl, and 7 mM β-mercaptoethanol, 2 A260 units/ml activated DNA, 0.6 mM [32P]-NAD⁺ at 37 °C. The reaction was initiated by addition of PARP2 to 600 nM, and the reaction mixtures were incubated for 5 min. The reaction was stopped by placing 5 μl aliquots on Whatman 1 paper filters impregnated with 5 % trichloroacetic acid (TCA). The filters were washed with 5 % TCA four times and air-dried after removal of TCA with 90 % ethanol. The incorporation of the radioactive label into the reaction product was calculated using a Typhoon FLA 9500 scanner (GE Healthcare, Chicago, Illinois, USA). At least three independent experiments were performed.

[4] = test system: poly(ADP-ribose) polymerase 2 (PARP2); assay: PARP2 auto-poly(ADP-ribosyl)ation with [32P]-NAD+; type: biochemical, human; conditions: compound 500 μM, PARP2 600 nM, 0.6 mM [32P]-NAD+, 5 min, 37 °C; mean ± SD
From the text: as §1, §2, §3

T3 sequence (P09874 whole entry): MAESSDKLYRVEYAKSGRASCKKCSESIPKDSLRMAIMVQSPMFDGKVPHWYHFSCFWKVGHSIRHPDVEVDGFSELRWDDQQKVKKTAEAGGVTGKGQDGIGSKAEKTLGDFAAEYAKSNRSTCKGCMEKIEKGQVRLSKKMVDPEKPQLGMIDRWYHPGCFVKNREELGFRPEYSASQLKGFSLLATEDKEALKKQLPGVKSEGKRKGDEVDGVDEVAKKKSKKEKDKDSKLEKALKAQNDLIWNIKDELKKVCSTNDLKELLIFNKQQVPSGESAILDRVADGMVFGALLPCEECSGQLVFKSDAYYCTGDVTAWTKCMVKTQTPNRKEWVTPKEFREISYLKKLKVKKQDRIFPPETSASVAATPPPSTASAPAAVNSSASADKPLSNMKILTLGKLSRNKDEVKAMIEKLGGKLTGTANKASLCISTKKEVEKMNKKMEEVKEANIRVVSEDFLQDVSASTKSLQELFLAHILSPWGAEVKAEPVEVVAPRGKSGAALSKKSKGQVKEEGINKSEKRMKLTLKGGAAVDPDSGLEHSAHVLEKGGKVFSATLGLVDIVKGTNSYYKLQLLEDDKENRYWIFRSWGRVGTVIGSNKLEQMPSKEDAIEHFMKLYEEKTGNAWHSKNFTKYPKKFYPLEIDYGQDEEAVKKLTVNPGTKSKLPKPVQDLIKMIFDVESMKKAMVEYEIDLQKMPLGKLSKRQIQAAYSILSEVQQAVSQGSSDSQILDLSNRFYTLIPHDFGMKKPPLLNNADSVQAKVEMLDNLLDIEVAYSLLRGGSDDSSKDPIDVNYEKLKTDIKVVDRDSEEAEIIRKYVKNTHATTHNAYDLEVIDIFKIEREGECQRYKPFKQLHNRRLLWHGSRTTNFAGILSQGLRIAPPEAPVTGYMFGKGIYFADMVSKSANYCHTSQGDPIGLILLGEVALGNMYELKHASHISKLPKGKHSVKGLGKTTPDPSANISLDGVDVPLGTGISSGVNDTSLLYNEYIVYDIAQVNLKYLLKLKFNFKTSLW
T1 sequence (Q9NUW8 whole entry): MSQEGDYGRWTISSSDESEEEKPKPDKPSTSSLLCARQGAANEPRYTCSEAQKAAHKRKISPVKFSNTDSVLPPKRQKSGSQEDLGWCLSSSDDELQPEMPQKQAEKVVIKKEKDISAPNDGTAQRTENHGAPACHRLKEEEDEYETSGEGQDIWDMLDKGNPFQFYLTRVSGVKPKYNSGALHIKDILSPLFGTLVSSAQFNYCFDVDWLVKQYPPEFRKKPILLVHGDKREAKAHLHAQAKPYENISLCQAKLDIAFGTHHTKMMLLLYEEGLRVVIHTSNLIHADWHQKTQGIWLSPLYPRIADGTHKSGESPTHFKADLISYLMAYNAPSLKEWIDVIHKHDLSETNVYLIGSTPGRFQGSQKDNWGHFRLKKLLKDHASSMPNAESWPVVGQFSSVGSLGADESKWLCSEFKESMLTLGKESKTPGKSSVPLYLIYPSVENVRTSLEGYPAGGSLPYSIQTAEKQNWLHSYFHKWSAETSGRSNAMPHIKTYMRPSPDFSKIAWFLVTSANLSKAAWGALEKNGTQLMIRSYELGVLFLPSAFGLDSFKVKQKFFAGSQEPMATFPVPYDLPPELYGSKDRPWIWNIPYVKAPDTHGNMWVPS

Structure (SMILES) | IC50 [1] [nM] | remaining activity at 500 µM [2] [%] | remaining activity at 500 µM [3] [%] | PARP2 % of residual activity (500 μM) [4]
CN1CCN(c2ccc3nc(-c4ccc5nc(CNC(=O)CN6CCN(CC(=O)NCc7nc8ccc(-c9nc%10ccc(N%11CCN(C)CC%11)cc%10[nH]9)cc8[nH]7)CC6)[nH]c5c4)[nH]c3c2)CC1 [DB2P(1)] | 6000 ± 4000 | 66 ± 7 | 57 ± 16 | ~ 100%
CN1CCN(c2ccc3nc(-c4ccc5nc(CNC(=O)CCN6CCN(CCC(=O)NCc7nc8ccc(-c9nc%10ccc(N%11CCN(C)CC%11)cc%10[nH]9)cc8[nH]7)CC6)[nH]c5c4)[nH]c3c2)CC1 [DB2P(2)] | 9000 ± 3000 | 44 ± 11 | 51 ± 15 | 80 ± 20%
CN1CCN(c2ccc3nc(-c4ccc5nc(CNC(=O)CCCN6CCN(CCCC(=O)NCc7nc8ccc(-c9nc%10ccc(N%11CCN(C)CC%11)cc%10[nH]9)cc8[nH]7)CC6)[nH]c5c4)[nH]c3c2)CC1 [DB2P(3)] | 4100 ± 600 | 36 ± 7 | 37 ± 10 | 64 ± 16%
CN1CCN(c2ccc3nc(-c4ccc5nc(CNC(=O)CCCCN6CCN(CCCCC(=O)NCc7nc8ccc(-c9nc%10ccc(N%11CCN(C)CC%11)cc%10[nH]9)cc8[nH]7)CC6)[nH]c5c4)[nH]c3c2)CC1 [DB2P(4)] | 2300 ± 300 | 44 ± 11 | 33 ± 13 | 85 ± 13%
CCCn1cc(NC(=O)CC(=O)Nc2cc(-c3nc4ccc(-c5nc6ccc(N7CCN(C)CC7)cc6[nH]5)cc4[nH]3)n(CCC)c2)cc1-c1nc2ccc(-c3nc4ccc(N5CCN(C)CC5)cc4[nH]3)cc2[nH]1 [DB2Py(1)] | 250 ± 50 | 55 ± 3 | ~100 | ~ 100%
CCCn1cc(NC(=O)CCCC(=O)Nc2cc(-c3nc4ccc(-c5nc6ccc(N7CCN(C)CC7)cc6[nH]5)cc4[nH]3)n(CCC)c2)cc1-c1nc2ccc(-c3nc4ccc(N5CCN(C)CC5)cc4[nH]3)cc2[nH]1 [DB2Py(3)] | 410 ± 90 | 70 ± 11 | ~100 | ~ 100%
CCCn1cc(NC(=O)CCCCC(=O)Nc2cc(-c3nc4ccc(-c5nc6ccc(N7CCN(C)CC7)cc6[nH]5)cc4[nH]3)n(CCC)c2)cc1-c1nc2ccc(-c3nc4ccc(N5CCN(C)CC5)cc4[nH]3)cc2[nH]1 [DB2Py(4)] | 400 ± 150 | ~100 | ~100 | ~ 100%
CCCn1cc(NC(=O)CCCCCC(=O)Nc2cc(-c3nc4ccc(-c5nc6ccc(N7CCN(C)CC7)cc6[nH]5)cc4[nH]3)n(CCC)c2)cc1-c1nc2ccc(-c3nc4ccc(N5CCN(C)CC5)cc4[nH]3)cc2[nH]1 [DB2Py(5)] | 350 ± 130 | ~100 | ~100 | ~ 100%
CCCn1cc(NC(=O)CCCCCCCC(=O)Nc2cc(-c3nc4ccc(-c5nc6ccc(N7CCN(C)CC7)cc6[nH]5)cc4[nH]3)n(CCC)c2)cc1-c1nc2ccc(-c3nc4ccc(N5CCN(C)CC5)cc4[nH]3)cc2[nH]1 [DB2Py(7)] | 280 ± 10 | ~100 | ~100 | ~ 100%
CCCn1cc(NC(=O)CCCCCCCCCC(=O)Nc2cc(-c3nc4ccc(-c5nc6ccc(N7CCN(C)CC7)cc6[nH]5)cc4[nH]3)n(CCC)c2)cc1-c1nc2ccc(-c3nc4ccc(N5CCN(C)CC5)cc4[nH]3)cc2[nH]1 [DB2Py(9)] | 300 ± 80 | ~100 | ~100 | ~ 100%
CCCn1cc(NC(=O)CCCCCCCCCCCC(=O)Nc2cc(-c3nc4ccc(-c5nc6ccc(N7CCN(C)CC7)cc6[nH]5)cc4[nH]3)n(CCC)c2)cc1-c1nc2ccc(-c3nc4ccc(N5CCN(C)CC5)cc4[nH]3)cc2[nH]1 [DB2Py(11)] | 900 ± 100 | ~100 | ~100 | ~ 100%
CN1CCN(c2ccc3nc(-c4ccc5nc(-c6ccc7nc(CNC(=O)CC(=O)NCc8nc9ccc(-c%10nc%11ccc(-c%12nc%13ccc(N%14CCN(C)CC%14)cc%13[nH]%12)cc%11[nH]%10)cc9[nH]8)[nH]c7c6)[nH]c5c4)[nH]c3c2)CC1 [DB3(1)] | > 50000 | 70 ± 6 | 55 ± 13 | ~ 100%
